Test results published in US7858738B2, “Synthetic human peptides and pharmaceutical compositions comprising them for the treatment of systemic lupus erythematosus” (Yeda Research and Development Co., Ltd., priority 2001, dated 2010).

Tests used:
PBL of SLE patients = experiment: Proliferative response of PBL of SLE patients to the human 16/6Id mAb; type: cell-based; settings: PBL of one SLE patient; for inhibition of the proliferative responses of PBL to human 16/6Id mAb: FIG. 7, reversed murine peptides as controls
Method: (§1) Induction and treatment of experimental SLE. In order to induce experimental SLE, BALB/c mice were immunized with 1-2 μg of the human mAb 16/6Id and boosted 3 weeks later. For the prevention of experimental SLE, mice were given hCDR1 or hCDR3 (mCDR1 or revmCDR1 as control peptide in Example 12) intravenously (i.v.) or s.c. concomitant with the immunization, and were injected weekly thereafter for 5 weeks. Treatment of an established disease started three and a half months following disease induction with the 16/6Id, when clinical manifestations were already observed. In Example 12, mice received 10 weekly injections (i.v. or s.c.) of mCDR1 or revmCDR1 at a dose of 100 μg/mouse. Prevention and treatment of SLE-like disease in (NZB×NZW)F1 mice with the hCDR1 or mCDR1 peptide. For prevention of SLE, mice at the age of 2 months, before disease manifestations are observed, were injected s.c. with hCDR1 (or mCDR1 in Example 12, 250 μg/mouse) once a week for 10 weeks. To treat an established disease, mice at the age of 5-7 months were injected with hCDR1 (in Example 12, mCDR1 s.c., 250 μg/mouse) once a week for 10 weeks. Proliferative Responses. PBL were isolated from heparinized venous blood by Ficoll-Hypaque (Pharmacia) density-gradient centrifugation. All assays were performed, in triplicate, in flat-bottomed microtiter plates (Falcon, Becton Dickinson, Oxmard, Calif., USA) in which 2×10^5 PBL were cultured in enriched RPMI-1640 as described (Dayan et al., 2000). The PBL were exposed to various concentrations (0.1-40 μg/well) of the human anti-DNA 16/6Id mAb with and without the addition of the various CDR-based peptides at a concentration of at least 10-fold excess over that of the 16/6Id. Phytohemagglutinin (PHA; 2 μg/well) was used as a control for culture conditions at each experiment. The cultures were incubated in 7.5% CO2 at 37° C. for 6 days. Eighteen hours before the cells were harvested, [^3H]-thymidine (0.5μ Ci of 5 Ci/mmol) (Nuclear Research Center, Negev, Israel) was added to all cultures. Results are expressed as the mean thymidine incorporation in counts per minute (CPM) of triplicate culture±SD, or as stimulation index (S.I.; the ratio of mean CPM at the optimal concentration of the human 16/6Id to the mean CPM in the presence of medium alone). A S.I.≧2 was considered a positive response (Dayan et al., 2000). Inhibition (the ratio of mean CPM in the presence of the 16/6Id and various CDR-based peptides to the mean CPM with the 16/6Id without the CDR-based peptide) above 50% was considered positive. Induction of Cytokine Production. Mice that were immunized with the human 16/6Id mAb and either treated or not with the CDR-based peptide, were killed at different periods during or after treatment with the peptide. Splenocytes and lymph node cells (LNC) were harvested and incubated (5×10^6/ml) in the presence of the 16/6Id. Supernatants were collected after 48 and 72 h. Assessment of Cytokines in the Supernatants. Supernatants were collected 48 hours following the initiation of the cultures and stored at −70° C. Measurements of IL-2, IL-10, IFN-γ, and TNF-α were performed by ELISA by using the relevant standards, capture and detecting Abs (Pharmingen) according to the manufacturer's instructions. TGF-β was determined by an ELISA. Briefly, plates were coated with the recombinant human TGF-β1 sRIII/Fc chimera (R & D Systems Inc., Minneapolis, Minn., USA), and the second Ab used was the biotinylated anti-human TGF-β1 antibody (R & D Systems Inc.). The substrate solution used was TMB color Reagent (Helix Diagnostics, West Sacramento, Calif.), and enzyme activity was evaluated by using 570- and 630-nm filters. Detection of SLE-Associated Clinical and Pathological Manifestations. Proteinuria was measured semiquantitatively by using Combistix kit (Ames Division, Bayer Diagnostics, Newbury, U.K.). White blood cells (WBC, for leukopenia) were counted after a 10-fold dilution of heparinized blood in distilled water containing 1% acetic acid (vol/vol). […]

T cell priming = settings: administered in PBS; Waisman et al., 1997; cited from earlier work
[1] = system: SLE prone mice (NZB×NZW) F1 or MRL/lpr/lpr; settings: Eilat et al., 2000 and 2001; cited from earlier work
(NZB×NZW)F1 mice [2] = experiment: Transfer of splenocytes of peptide-treated mice into (NZB×NZW)F1 mice with full-blown disease; type: in vivo; settings: Table 14 (repeat experiment), recipients of 20 × 10^6 spleen cells from treated mice
Excerpt: It was of importance to investigate whether the beneficial effects of treatment with hCDR1, that are manifested by the down-regulation of disease manifestations, can be transferred by spleen cells of treated mice. To this end, we have performed an experiment in which 8-month old (NZB×NZW)F1 mice, that suffer already from the full-blown lupus-like disease, were divided into 2 groups. Group 1 was not treated and mice of group 2 were transferred with 20×10^6 spleen cells of 3-month old (NZB×NZW)F1 mice that were injected 3 times (s.c., every other day) with 300 μg/mouse of hCDR1. All splenocytes were injected intraperitoneally. Mice were tested for anti-dsDNA autoantibody production, disease manifestations, and were sacrificed 4 weeks after cell transfer.
The experiment was repeated a few more times using revhCDR1 as control.

BALB/c mice = experiment: Treatment of 16/6Id-induced experimental SLE in BALB/c mice; type: in vivo; settings: Table 12, 300 μg/mouse weekly
Method: as §1

(NZB×NZW)F1 mice [3] = experiment: Treatment of established SLE-like disease in (NZB×NZW)F1 mice; type: in vivo; settings: 300 μg/mouse, age 7 months
Method: as §1

MMP-3 [4] = experiment: MMP-3 levels in sera of 16/6Id immunized BALB/c mice (Western blot); type: in vivo; settings: prevention and treatment protocols, 100 μg/mouse; FIG. 21A
Method: (§2) Induction and treatment of experimental SLE. In order to induce experimental SLE, BALB/c mice were immunized with 1-2 μg of the human mAb 16/6Id and boosted 3 weeks later. For the prevention of experimental SLE, mice were given hCDR1 or hCDR3 (mCDR1 or revmCDR1 as control peptide in Example 12) intravenously (i.v.) or s.c. concomitant with the immunization, and were injected weekly thereafter for 5 weeks. Treatment of an established disease started three and a half months following disease induction with the 16/6Id, when clinical manifestations were already observed. In Example 12, mice received 10 weekly injections (i.v. or s.c.) of mCDR1 or revmCDR1 at a dose of 100 μg/mouse. Prevention and treatment of SLE-like disease in (NZB×NZW)F1 mice with the hCDR1 or mCDR1 peptide. […] Results are expressed as the mean thymidine incorporation in counts per minute (CPM) of triplicate culture±SD, or as stimulation index (S.I.; the ratio of mean CPM at the optimal concentration of the human 16/6Id to the mean CPM in the presence of medium alone). […] TGF-β was determined by an ELISA. […] The substrate solution used was TMB color Reagent (Helix Diagnostics, West Sacramento, Calif.), and enzyme activity was evaluated by using 570- and 630-nm filters. […] Proteinuria was measured semiquantitatively by using Combistix kit (Ames Division, Bayer Diagnostics, Newbury, U.K.). […]

MMP-9 [5] = experiment: MMP-9 activity in sera of 16/6Id immunized BALB/c mice; type: in vivo; settings: for MMP-9 activity in sera: prevention and treatment protocols, 100 μg/mouse, FIG. 21B
Method: as §2, with “peptide. For prevention of SLE, mice at the age of 2 months, before disease manifestations are observed, were injected s.c. with hCDR1 (or mCDR1 in Example 12, 250 μg/mouse) once a week for 10 weeks. To treat an established disease, mice at the age of 5-7 months were injected with hCDR1 (in Example 12, mCDR1 s.c., 250 μg/mouse) once a week for 10 weeks. Proliferative Responses. PBL were isolated from heparinized venous blood by Ficoll-Hypaque (Pharmacia) density-gradient centrifugation.” for “peptide.”, “U.K.). White blood cells (WBC, for leukopenia) were counted after a 10-fold dilution of heparinized blood in distilled water containing 1% acetic acid (vol/vol).” for “U.K.).”

MMP-9 [6] = experiment: MMP-9 activity in sera of (NZB×NZW)F1 mice (gel zymography); type: in vivo; settings: for activity of MMP-9 in the sera: treatment of sick mice, FIG. 20B right
Method: as §1, with “A S.I.≧2 was considered a positive response (Dayan et al., 2000). Inhibition (the ratio of mean CPM in the presence of the 16/6Id and various CDR-based peptides to the mean CPM with the 16/6Id without the CDR-based peptide) above 50% was considered positive. Induction of Cytokine Production. Mice that were immunized with the human 16/6Id mAb and either treated or not with the CDR-based peptide, were killed at different periods during or after treatment with the peptide. Splenocytes and lymph node cells (LNC) were harvested and incubated (5×10^6/ml) in the presence of the 16/6Id. Supernatants were collected after 48 and 72 h. Assessment of Cytokines in the Supernatants. Supernatants were collected 48 hours following the initiation of the cultures and stored at −70° C. Measurements of IL-2, IL-10, IFN-γ, and TNF-α were performed by ELISA by using the relevant standards, capture and detecting Abs (Pharmingen) according to the manufacturer's instructions.” left out, “Briefly, plates were coated with the recombinant human TGF-β1 sRIII/Fc chimera (R & D Systems Inc., Minneapolis, Minn., USA), and the second Ab used was the biotinylated anti-human TGF-β1 antibody (R & D Systems Inc.).” left out, “Detection of SLE-Associated Clinical and Pathological Manifestations.” left out

MMP-3 [7] = experiment: MMP-3 immunostaining of kidney sections of 16/6Id immunized BALB/c mice; type: in vivo; settings: prevention and treatment experiments; glomeruli and interstitium; FIG. 22
Method: as §2

MMP-3 [8] = experiment: MMP-3 levels in sera of (NZB×NZW)F1 mice (Western blot); type: in vivo
Method: as §2, with “peptide. For prevention of SLE, mice at the age of 2 months, before disease manifestations are observed, were injected s.c. with hCDR1 (or mCDR1 in Example 12, 250 μg/mouse) once a week for 10 weeks. To treat an established disease, mice at the age of 5-7 months were injected with hCDR1 (in Example 12, mCDR1 s.c., 250 μg/mouse) once a week for 10 weeks. Proliferative Responses. PBL were isolated from heparinized venous blood by Ficoll-Hypaque (Pharmacia) density-gradient centrifugation.” for “peptide.”, “U.K.). White blood cells (WBC, for leukopenia) were counted after a 10-fold dilution of heparinized blood in distilled water containing 1% acetic acid (vol/vol).” for “U.K.).”

MMP-9 [9] = experiment: MMP-9 immunostaining of kidney sections of 16/6Id immunized BALB/c mice; type: in vivo; settings: prevention and treatment experiments; glomeruli and interstitium; FIG. 22
Method: as §2

## YYCARFLWEPYAMDYWGQGS (Murine) [mCDR3, murine peptide based on CDR3 of the VH chain of murine mAb 5G12]
PBL of SLE patients; FIG. 6
  inhibition of the proliferative responses of PBL to the human 16/6Id mAb: did not inhibit
T cell priming
  T cell priming to the appropriate mCDR peptide or to the whole anti-DNA 16/6Id mAb: inhibiting T cell priming
[1]
  prevention or treatment of SLE induced by human 16/6Id mAb or spontaneous: either prevent or treat an already established SLE

## GIWEEGKGPPQRIWSWYYG (Synthetic peptide prepared in the reversed order of SEQ ID NO 6.) [revhCDR1, control peptide synthesized in the reversed order of hCDR1, reference compound]
(NZB×NZW)F1 mice [2]; non-treated 2.3 ± 0.26
  I.C.D ± SEM: 1.7 ± 0.23
(NZB×NZW)F1 mice [2]; non-treated 10.9 ± 3.05
  Proteinuria g/L ± SEM: 5.38 ± 2.34 g/L
BALB/c mice; 16/6Id alone 0.47 ± 0.3
  Anti-dsDNA antibodies 1:1250, Mean ± SD: 0.35 ± 0.3
BALB/c mice; 16/6Id alone 0.58 ± 0.34
  Proteinuria g/l, Mean ± SD: 0.8 ± 0.3 g/L
BALB/c mice; 16/6Id alone 0.89 ± 0.1
  Anti-16/6 Id antibodies 1:10000, Mean ± SD: 0.95 ± 0.13
BALB/c mice; 16/6Id alone 1.6 ± 0.55
  Intensity of ICD in kidneys, Mean ± SD: 0.85 ± 0.75
BALB/c mice; 16/6Id alone 2800 ± 300
  WBC/mm^3, Mean ± SD: 4180 ± 831 /mm^3
(NZB×NZW)F1 mice [3]; following treatment No 5, untreated 2.65 ± 1.76
  Proteinuria g/L ± SEM: 6.94 ± 2.53 g/L
(NZB×NZW)F1 mice [3]; following treatment No 7, untreated 3.89 ± 2.73
  Proteinuria g/L ± SEM: 6.76 ± 2.91 g/L
(NZB×NZW)F1 mice [3]; following treatment No 9, untreated 7.55 ± 3.95
  Proteinuria g/L ± SEM: 5.99 ± 3.08 g/L

## GIWELSKEPSQKVWQMYYGT (Synthetic peptide prepared in the reversed order of SEQ ID NO 1.) [revmCDR1, control peptide synthesized in the reversed order of mCDR1]
PBL of SLE patients
  inhibition of the proliferative responses of PBL to human 16/6Id mAb: failed to inhibit significantly
MMP-3 [4]
  levels of MMP-3 in sera: did not affect
MMP-9 [5]
  MMP-9 activity in sera: did not affect
MMP-9 [6]
  activity of MMP-9 in the sera: not

## SGQGWYDMAYPEWLFRACYY (Synthetic peptide prepared in reversed order of SEQ ID NO 3.) [revmCDR3, control peptide synthesized in the reversed order of mCDR3, reference compound]
PBL of SLE patients
  inhibition of the proliferative responses of PBL to human 16/6Id mAb: failed to inhibit significantly

## TGYYMQWVKQSPEKSLEWIG [mCDR1]
MMP-3 [7]
  expression levels of MMP-3 in the kidneys: down-regulated
T cell priming
  T cell priming to the appropriate mCDR peptide or to the whole anti-DNA 16/6Id mAb: inhibiting T cell priming
MMP-3 [4]
  levels of MMP-3 in sera: could down regulate
MMP-3 [8]; prevention protocol: 250 μg/mouse s.c. weekly for 10 weeks from age 2 months, FIG. 20A
  two lower bands of MMP-3 in the serum: reduction
MMP-3 [8]; treatment of sick mice, FIG. 20A right
  levels of MMP-3 in the sera: specifically down-regulated
MMP-9 [5]; MMP-9 activity assay system, preliminary, unimmunized 7 ng/ml, 16/6Id immunized 16 ng/ml
  activity of sera comparable to pure active MMP-9: 8.5 ng/mL
MMP-9 [5]
  MMP-9 activity in sera: could down regulate
MMP-9 [6]; prevention protocol: 250 μg/mouse s.c. weekly for 10 weeks from age 2 months, FIG. 20B
  MMP-9 activity in the serum: reduction
MMP-9 [6]
  activity of MMP-9 in the sera: specifically down-regulated
[1]
  prevention or treatment of SLE induced by human 16/6Id mAb or spontaneous: either prevent or treat an already established SLE
MMP-9 [9]
  expression levels of MMP-9 in the kidneys: down-regulated
